Patent US20140163082A1, “PYRAZOLYL COMPOUNDS FOR USE IN REVERSING REACTIVE GLIOSIS” (priority 2011, published 2014)

Experiments:
macrophages = macrophages stimulated by lipoteichoic acid in vitro, ref [31]; cited from earlier work
ischemic retinas = test: Immunohistochemical analysis, in vivo (OIR retinas); parameters: species or system C57BL/6J mice; conditions: OIR mice, vs DMSO-treated retinas
Method: (§1) Retinal NV was induced in newborn mice as described previously. Briefly, P7 mice were exposed with their nursing mother, for 5 days [between P7 and P12] to hyperoxic conditions, by incubating them in an airtight chamber [PROOX 110 chamber O2 controller; Biospherix Ltd., Redfield, N.Y.] ventilated by a mixture of O2 and air to a final oxygen fraction of 75±2%. These incubation conditions induced vaso-obliteration and subsequent cessation of vascular development in the capillary beds of the central retina. At P12, the mice were allowed to recover in normal room air conditions and maintained for another 5 days [till P17], the day in which peak disease occurs. A condition of relative hypoxia resulted between P12 and P17, and extensive retinal NV developed in 100% of the mice. Age-matched animals with the hyperoxia-exposed groups were maintained identically, except they were exposed to room air […], 79% N2] for the entire duration of the experiment. All animals were examined and sacrificed on the same days.
(§2) A group of hyperoxia-exposed animals [n=15] were injected intravitreally [into both eyes] at P12 and P15 with 3 μl of YC-1 [100 μM] [drug-treated group]. Another group of hyperoxiaexposed mice [n=15] were injected intravitreally [into both eyes] at P12 and P15 with 3 μl of DMSO [0.2% [v/v]] [mock-treated group]. Non-treated mice grown under ambient conditions, non-treated hyperoxia-exposed mice, DMSO-treated hyperoxia-exposed mice and YC-1-treated hyperoxia-exposed mice, were all examined at different critical time points for qualitative assessment of the retinal vasculature by fluorescein angiography.
Mouse retinas were dissected and prepared for immunohistochemical analysis, fixed in 4% paraformaldehyde in 0.1 M PBS for 15 min at room temperature and embedded in paraffin, sectioned [5 μm]. Tissue sections were deparaffinized, hydrated, and later exposed to heat induced antigen retrieval using a microwave oven [three 5-minute cycles in citrate buffer, pH 6.0], endogenous peroxidase was abolished with methanol, and hydrogen peroxide and nonspecific background staining was blocked by incubating the tissue sections for 5 minutes in normal swine serum. Subsequently, all slides were washed three times in PBS, and incubated for 1 hour with primary anti-[HIF-1α, VEGF, PDGF-B, GFAP, iNOS, and β-actin] antibodies. The sections were washed with TBST and incubated with EnVision Polymer HRP secondary antibody [DAKO, Carpinteria, Calif.] for 30 minutes. All slides were stained with DAB solution and counterstained with hematoxylin. Slides were cover slipped [Permount; Fisher Scientific, Fairlawn, N.J.] and examined by light microscopy. Negative controls were performed by omitting the primary antibodies. Sections were photographed under a microscope [Zeiss Axiovert 135, Thornwood, N.Y.], and images were acquired a digital camera [AxioCam, N.Y.]. All retinas were examined at X60 objective. The staining intensity in our series ranged from a weak blush to moderate or strong. The amount of cells staining with the antibody was further categorized as focal [<10%], patchy [10%-50%], and diffuse [>50%]. For meaningful semiquantitative analysis, focal and/or weak staining was considered equivocal staining, and patchy or diffuse staining was either subcategorized as either moderate or strong staining. All Immunohistochemical analyses were measured by Metamorph digital image software [Molecular Devices, Sunnyvale, Calif.].

[1] = test system: retinal NV in OIR mouse model; assay type: in vivo
Method: as §1, §2
Deep anesthesia was induced by intraperitoneal injection of ketamine [1%], xylazine [0.1%], and sodium chloride [0.9%] in a concentration of 0.1 mL/10 g mouse body weight. Sternotomy was performed, the mice were perfused through the left ventricle with 600 μL of high-molecular-mass [2×106 Da] FITC-dextran in PBS [50 mg/ml], which was allowed to circulate for 2 minutes before the animals were euthanatized and the eyes enucleated and the flat mounts were prepared. Subsequent to retinal extraction, all retinas were fixed in 4% paraformaldehye for 24 hrs at 4° C. A dissecting microscope was used to dissect the cornea with a circumferential limbal incision, followed by removal of the lens and vitreous. Microscissors were used to make four radial incisions of the retinal eyecup in order to prepare retinal flat mounts on glass slides. Flat mounts were immersed in Aquamount mounting medium [Polysciences, Warrington, Pa.], coverslips were carefully placed over the retina, and the edges of the coverslips were sealed.
Images of the perfused retinas were captured with a fluorescence microscope [Zeiss Axiovert 135, Thornwood, N.Y.], and images were captured in a digital format in a 10× and 100× objectives using a digital camera [AxioCam, NY]. The extent of retinal NV was then quantified by Metamorph™ imaging software [Universal Imaging, Sunnyvale, Calif.]. Briefly, the entire retina was outlined to distinguish the total retinal area of each eye. Then, the images were thresholded to emphasize only the FITC-perfused vessels. This permitted the measurement of total BV area of each retina and the percentage of each retina that is engrossed with BVs. The entire mounted retinas were analyzed in a masked fashion [three observers] to minimize sampling bias. The total vascularized area was then normalized to the total retinal area and the percentage of the retina covered by vessels was calculated. The vascular area was quantified by setting a threshold level of fluorescence, above which only vessels were captured [density slicing]. The total surface area of the retina was outlined using the outermost vessel of the arcade near the ora serrata as the border. The central capillary dropout area was quantified from the digital images in masked fashion. […]

Structure (SMILES): OCc1ccc(-c2nn(Cc3ccccc3)c3ccccc23)o1 [YC-1, 3-(5′-hydroxymethyl-2′-furyl)-1-benzylindazole]
- cell viability (DAPI exclusion) (R28 cells): comprised the majority of cells
- expression of iNOS (macrophages): potent activity at abrogating the expression of iNOS
- GFAP immunoexpression in retina (ischemic retinas): significant down-regulation
- HIF-1 immunoexpression in retina (ischemic retinas): significant inhibition
- PDGF-B immunoreactivity in retina (ischemic retinas): significantly inhibited
- VEGF immunoexpression in retina (ischemic retinas): significant inhibition
- iNOS immunoreactivities in retina (ischemic retinas): significantly down-regulated
- retinal vasodilation (vessel diameters) ([1]; OIR mice, dual injection P12 and P15, P17): inhibited oxygen-injury-induced vasodilation
- area of pre-retinal neovascular tufts ([1]; OIR mice, dual injection, P17, vs DMSO-treated group): significantly decreased
- tortuosity index of retinal vessels ([1]; OIR mice, dual injection, P17, DMSO 1.059, normoxic 1.019): 1.026±0.001
- number of BV tufts/flat mount ([1]; OIR mice, dual intravitreal injection P12 and P15, P17, n=15, DMSO 198): 3.0±1.1
- vascularized regions, share of the total size of the retina ([1]; OIR mice, dual intravitreal injections, P17, DMSO 70%, normoxic ~99%): ~97%
- capillary-free (avascularized) regions, share of the size of the entire retina ([1]; OIR mice, intravitreal 3 μl YC-1 100 μM at P12 and P15, P17, DMSO-treated 30%): 2.2%±0.1
- retinal vaso-obliteration ([1]; OIR mice, vs obliterated areas of DMSO-treated retinas): significantly inhibited the retinal vaso-obliteration
- toxic effects on the retinal vasculature ([1]; mouse, in vivo): No obvious toxic effects
